# Tests used:
# Transthyretin [1] = molecular target: T1, Transthyretin (Homo sapiens, UniProt P02766); assay: (§1) Inhibition of recombinant wild-type Transthyretin (unknown origin) expressed in Escherichia coli expression system assessed as acid mediated fibril formation at 1.8 uM measured after 120 hrs by UV-vis spectrophotometry relative to control
# Transthyretin [2] = molecular target: T1, Transthyretin; assay: as §1, with “3.6” for “1.8”, “uM preincubated for 2 hrs followed by addition of acetate buffer solution and” for “uM”, “72” for “120”; conditions: time 74.0 hrs, values are per cent of control
# Transthyretin [3] = molecular target: T1, Transthyretin; assay: as §1, with “uM preincubated for 2 hrs followed by addition of acetate buffer solution and” for “uM”, “72” for “120”; conditions: time 74.0 hrs, values are per cent of control
# [4] = test system: Transthyretin (Homo sapiens), P02766 [V50M]; assay: (§2) Inhibition of recombinant Transthyretin V30M mutant (unknown origin) expressed in Escherichia coli expression system assessed as acid mediated fibril formation at 1.8 uM preincubated for 2 hrs followed by addition of acetate buffer solution and measured after 72 hrs by UV-vis spectrophotometry relative to control; conditions: time 74.0 hrs, values are per cent of control
# Transthyretin [5] = molecular target: T1, Transthyretin
# Description: Covalent inhibition of urea-induced Transthyretin denaturation in human plasma preincubated for 1 hr followed by urea addition by Western blot analysis
# [6] = test system: Transthyretin (Homo sapiens), P02766 [V50M]; assay: as §2, with “3.6” for “1.8”; conditions: time 74.0 hrs, values are per cent of control
# [7] = test system: Transthyretin (Homo sapiens), P02766 [V50M]; assay: Inhibition of recombinant Transthyretin V30M mutant (unknown origin) assessed as acid mediated fibril formation at 7.2 uM relative to control
Compound,inhibition (Transthyretin [1]) [%],"response, % of control (Transthyretin [2]) [%]","response, % of control (Transthyretin [3]) [%]","response, % of control [4] [%]",IC50 (Transthyretin [5]) [µM],"response, % of control [6] [%]",inhibition [7] [%]
Cc1n[nH]c(C)c1/C=C/c1cc(Br)c(OC(=O)c2c(F)cccc2F)c(Br)c1,< 5,0.3,1.2,14.8,0.57,3.5,
Cc1n[nH]c(C)c1/C=C/c1cc(Br)c(O)c(Br)c1,,9.2,17.3,41.7,,11.1,39
CCCC(=O)Oc1c(Br)cc(/C=C/c2c(C)n[nH]c2C)cc1Br,,0.3,2.7,23.5,,6.6,
CCC(C)C(=O)Oc1c(Br)cc(/C=C/c2c(C)n[nH]c2C)cc1Br (stereo unspecified),,0.3,2.2,18,,2.9,
Cc1n[nH]c(C)c1/C=C/c1cc(Br)c(OC(=O)c2ccc(F)cc2)c(Br)c1,< 5,0.2,5.7,15.7,0.45,3.9,
Cc1n[nH]c(C)c1/C=C/c1cc(Br)c(OC(=O)c2c(F)cc(F)cc2F)c(Br)c1,< 5,0.3,0.8,13.8,0.47,3,
O=C(O)c1ccc2nc(-c3cc(Cl)cc(Cl)c3)oc2c1,46,11.1,40.9,53.8,,21,

# From ChEMBL document CHEMBL5380798, “Novel Strategy To Inhibit Transthyretin Amyloidosis via the Synergetic Effect of Chemoselective Acylation and Noncovalent Inhibitor Release” (J Med Chem, 2023)
